Experiments:
KIT = molecular target: T1, KIT (Homo sapiens, UniProt P10721); assay: Competition binding assay, KIT Kd; settings: competition binding
T1 construct: made in house
Summary of the method: (§1)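 Phage-fused or HEK-293/DNA-tagged kinase + ligand-coated streptavidin beads + compound, 1 h RT with shaking. Wash, elute with free ligand 30 min RT, qPCR of eluted kinase. Kd: 11-point 3-fold series.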

PDGFRβ = molecular target: T2, PDGFRβ (Homo sapiens, UniProt P09619); assay: Competition binding assay, PDGFRβ Kd; settings: competition binding
T2 construct: made in house
T2 sequence (P09619 33-1106): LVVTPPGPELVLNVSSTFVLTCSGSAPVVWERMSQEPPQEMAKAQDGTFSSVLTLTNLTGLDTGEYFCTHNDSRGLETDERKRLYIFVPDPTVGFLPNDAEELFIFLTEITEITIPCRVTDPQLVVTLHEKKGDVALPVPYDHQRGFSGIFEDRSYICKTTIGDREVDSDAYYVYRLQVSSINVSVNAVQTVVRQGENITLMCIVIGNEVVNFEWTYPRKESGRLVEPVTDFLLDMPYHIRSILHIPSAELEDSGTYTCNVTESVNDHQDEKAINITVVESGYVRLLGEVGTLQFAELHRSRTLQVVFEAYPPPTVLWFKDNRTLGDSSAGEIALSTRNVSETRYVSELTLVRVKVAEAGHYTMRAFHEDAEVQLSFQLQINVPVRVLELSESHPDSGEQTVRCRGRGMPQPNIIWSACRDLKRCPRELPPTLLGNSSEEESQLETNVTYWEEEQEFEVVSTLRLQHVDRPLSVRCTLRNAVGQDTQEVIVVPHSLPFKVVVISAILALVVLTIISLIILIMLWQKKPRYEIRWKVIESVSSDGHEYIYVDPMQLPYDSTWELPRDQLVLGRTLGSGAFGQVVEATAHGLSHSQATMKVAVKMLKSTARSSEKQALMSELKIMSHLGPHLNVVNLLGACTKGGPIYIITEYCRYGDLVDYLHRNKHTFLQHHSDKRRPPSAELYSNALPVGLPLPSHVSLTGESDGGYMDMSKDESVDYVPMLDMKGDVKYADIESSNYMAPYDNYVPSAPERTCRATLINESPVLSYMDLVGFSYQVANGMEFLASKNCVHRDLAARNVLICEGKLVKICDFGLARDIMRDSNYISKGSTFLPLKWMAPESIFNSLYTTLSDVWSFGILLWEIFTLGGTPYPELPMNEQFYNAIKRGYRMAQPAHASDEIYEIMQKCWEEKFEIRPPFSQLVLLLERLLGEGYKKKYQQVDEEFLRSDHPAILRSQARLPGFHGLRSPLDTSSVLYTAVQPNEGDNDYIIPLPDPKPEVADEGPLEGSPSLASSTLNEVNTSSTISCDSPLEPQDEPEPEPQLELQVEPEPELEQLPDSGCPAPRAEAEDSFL
Summary of the method: as §1

CSF1R [1] = molecular target: T3, CSF1R (Homo sapiens, UniProt P07333); assay: Competition binding assay, CSF1R Kd; design: made in house; settings: competition binding
T3 sequence (P07333 20-972): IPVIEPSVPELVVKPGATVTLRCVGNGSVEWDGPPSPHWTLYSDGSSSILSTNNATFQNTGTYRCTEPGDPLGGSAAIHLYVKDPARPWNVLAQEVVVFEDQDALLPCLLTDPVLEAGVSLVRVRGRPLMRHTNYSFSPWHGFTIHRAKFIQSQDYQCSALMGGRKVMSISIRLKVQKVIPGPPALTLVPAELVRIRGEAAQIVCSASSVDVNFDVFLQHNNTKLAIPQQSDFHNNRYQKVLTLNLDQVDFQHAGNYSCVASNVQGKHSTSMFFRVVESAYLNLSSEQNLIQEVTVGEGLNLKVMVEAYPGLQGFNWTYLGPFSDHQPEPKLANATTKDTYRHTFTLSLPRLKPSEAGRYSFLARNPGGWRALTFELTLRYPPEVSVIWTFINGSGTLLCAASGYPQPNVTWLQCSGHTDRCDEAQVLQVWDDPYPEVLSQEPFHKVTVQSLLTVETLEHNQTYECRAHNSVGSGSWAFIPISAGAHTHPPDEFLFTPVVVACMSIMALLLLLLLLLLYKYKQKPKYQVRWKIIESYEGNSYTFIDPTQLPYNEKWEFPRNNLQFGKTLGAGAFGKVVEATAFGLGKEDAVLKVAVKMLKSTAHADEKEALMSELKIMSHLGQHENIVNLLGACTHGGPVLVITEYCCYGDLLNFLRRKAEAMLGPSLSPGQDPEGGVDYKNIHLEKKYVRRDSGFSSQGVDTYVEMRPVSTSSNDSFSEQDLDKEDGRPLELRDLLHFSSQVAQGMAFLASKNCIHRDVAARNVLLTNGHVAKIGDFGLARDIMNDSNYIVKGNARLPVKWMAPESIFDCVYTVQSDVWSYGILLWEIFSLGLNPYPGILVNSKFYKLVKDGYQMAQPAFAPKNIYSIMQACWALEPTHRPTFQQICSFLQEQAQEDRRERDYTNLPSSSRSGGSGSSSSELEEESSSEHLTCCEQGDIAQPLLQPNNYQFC
Summary of the method: as §1

CSF1R [2] = molecular target: T3, CSF1R; assay: HEK293 CSF1R phosphorylation MSD assay; type: cell-based; design: expressed in transfected cells; host or cells: HEK293; settings: HEK293 cells, M-CSF stimulated CSF1R phosphorylation, MSD; read-out: HEK293 pCSF1R M-CSF MSD:IC50
Summary of the method: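 Ligand-induced CSF1R autophosphorylation was measured by MSD sandwich assay: CSF1R-FKBP from lysates captured via FK506, anti-phosphotyrosine readout. Cells were exposed to compound for 2 h (9-point, half-log, 0.5% DMSO) before 5 min 50 ng/mL M-CSF. Reported IC50 is the mean of duplicate-plate IC50s relative to DMSO control.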

M-NFS-60 cells = assay: M-NFS-60 cell proliferation assay (Alamar Blue); type: cell-based, mouse; settings: Mus musculus; M-NFS-60 cell proliferation; read-out: CSF1R M-NFS-60 CTB:IC50
Summary of the method: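 Alamar Blue reduction (3 h; 560/590 nm) measured viability after 72 h, 37 °C treatment with nine half-log compound concentrations at 0.5% DMSO. Cells: M-CSF-dependent (20 ng/mL) murine M-NFS-60 in RPMI plus 10% FBS. IC50s, averaged from duplicates, reflect half-maximal inhibition of proliferation relative to control.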

T1 sequence (P10721 26-976): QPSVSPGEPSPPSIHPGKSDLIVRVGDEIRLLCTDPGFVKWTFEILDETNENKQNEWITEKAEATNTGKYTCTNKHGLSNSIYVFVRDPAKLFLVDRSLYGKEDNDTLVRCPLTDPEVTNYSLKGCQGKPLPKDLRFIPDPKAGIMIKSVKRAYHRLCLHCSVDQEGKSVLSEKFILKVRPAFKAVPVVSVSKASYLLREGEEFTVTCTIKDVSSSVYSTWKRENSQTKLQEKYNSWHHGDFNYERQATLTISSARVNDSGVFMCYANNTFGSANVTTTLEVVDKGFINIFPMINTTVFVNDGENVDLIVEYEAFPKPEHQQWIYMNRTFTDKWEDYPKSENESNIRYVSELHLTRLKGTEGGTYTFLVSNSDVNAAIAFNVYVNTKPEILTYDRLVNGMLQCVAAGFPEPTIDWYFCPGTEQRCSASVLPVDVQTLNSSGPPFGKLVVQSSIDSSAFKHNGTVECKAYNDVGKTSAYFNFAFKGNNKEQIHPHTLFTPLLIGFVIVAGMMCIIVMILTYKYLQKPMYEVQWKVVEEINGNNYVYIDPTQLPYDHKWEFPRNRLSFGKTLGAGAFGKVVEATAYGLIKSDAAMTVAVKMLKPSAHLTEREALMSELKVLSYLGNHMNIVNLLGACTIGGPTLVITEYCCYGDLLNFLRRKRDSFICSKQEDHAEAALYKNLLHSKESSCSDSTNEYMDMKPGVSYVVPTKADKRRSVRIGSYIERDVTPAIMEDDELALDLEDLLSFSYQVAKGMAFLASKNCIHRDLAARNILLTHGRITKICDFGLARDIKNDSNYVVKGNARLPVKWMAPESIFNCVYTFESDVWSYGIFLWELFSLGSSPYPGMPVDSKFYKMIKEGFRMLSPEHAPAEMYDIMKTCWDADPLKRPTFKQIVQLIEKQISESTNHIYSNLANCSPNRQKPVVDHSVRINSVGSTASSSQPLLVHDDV

| Structure (SMILES) | Kd (KIT) [µM] | Kd (PDGFRβ) [µM] | Kd (CSF1R [1]) [µM] | IC50 (CSF1R [2]) [µM] | IC50 (M-NFS-60 cells) [µM] |
| --- | --- | --- | --- | --- | --- |
| O[C@@H]1CCCC[C@H]1Nc1nc2c(Br)cc(Cn3cnc4cccnc43)cc2s1 [Example 166, (1R,2R)-2-((6-((3H-imidazo[4,5-b]pyridin-3-yl)methyl)-4-bromobenzo[d]thiazol-2-yl)amino)cyclohexanol] | 0.5 to 2 | > 2 | 0.005 to 0.02 | > 0.5 | 0.4 to 1.5 |
| O[C@@H]1CCCC[C@H]1Nc1nc2ccc(Cn3cnc4cc(F)ccc43)cc2s1 [Example 129, (1R,2R)-2-((6-((5-fluoro-1H-benzo[d]imidazol-1-yl)methyl)benzo[d]thiazol-2-yl)amino)cyclohexanol] | ≤ 0.1 | ≤ 0.05 | ≤ 0.005 | ≤ 0.05 | 0.05 to 0.4 |
| COc1ccc2ncn(Cc3ccc4nc(N[C@@H]5CCCC[C@H]5O)oc4c3)c2c1 [Example 152, (1R,2R)-2-((6-((6-methoxy-1H-benzo[d]imidazol-1-yl)methyl)benzo[d]oxazol-2-yl)amino)cyclohexanol] | ≤ 0.1 | 0.05 to 0.5 | 0.005 to 0.02 | ≤ 0.05 | 0.05 to 0.4 |
| O=c1c(N2CCOCC2)nccn1Cc1ccc2nc(N[C@@H]3CCCC[C@H]3O)sc2c1 [Example 222, 1-((2-(((1R,2R)-2-hydroxycyclohexyl)amino)benzo[d]thiazol-6-yl)methyl)-3-morpholinopyrazin-2(1H)-one] | > 2 | 0.5 to 2 | 0.02 to 0.05 | > 0.5 | > 1.5 |
| O[C@@H]1CCCC[C@H]1Nc1nc2ccc(Cc3cnc4cc(-n5cccn5)ccn34)cc2s1 [Example 167, (1R,2R)-2-((6-((7-(1H-pyrazol-1-yl)imidazo[1,2-a]pyridin-3-yl)methyl)benzo[d]thiazol-2-yl)amino)cyclohexanol] | 0.1 to 0.5 | 0.05 to 0.5 | ≤ 0.005 | ≤ 0.05 | ≤ 0.05 |
| C=C(c1ccc2c(c1)ncn2Cc1ccc2nc(N[C@@H]3CCCC[C@H]3O)sc2c1)C(F)(F)F [Example 175, (1R,2R)-2-((6-((5-(3,3,3-trifluoroprop-1-en-2-yl)-1H-benzo[d]imidazol-1-yl)methyl)benzo[d]thiazol-2-yl)amino)cyclohexanol] | 0.1 to 0.5 | 0.05 to 0.5 | 0.005 to 0.02 | 0.05 to 0.2 | 0.05 to 0.4 |
| COc1ccc2c(c1)ncn2Cc1ccc2nc(N[C@@H]3CCCC[C@H]3O)oc2c1 [Example 151, (1R,2R)-2-((6-((5-methoxy-1H-benzo[d]imidazol-1-yl)methyl)benzo[d]oxazol-2-yl)amino)cyclohexanol] | ≤ 0.1 | ≤ 0.05 | 0.005 to 0.02 | ≤ 0.05 | 0.05 to 0.4 |
| N#Cc1ccc2ncc(Cc3ccc4nc(N[C@@H]5CCCC[C@H]5O)sc4c3)n2n1 [Example 221, 3-((2-(((1R,2R)-2-hydroxycyclohexyl)amino)benzo[d]thiazol-6-yl)methyl)imidazo[1,2-b]pyridazine-6-carbonitrile] | ≤ 0.1 | ≤ 0.05 | ≤ 0.005 | ≤ 0.05 | ≤ 0.05 |
| O[C@@H]1CCCC[C@H]1Nc1nc2ccc(Cn3cnc4cc(-n5ccnc5)ccc43)cc2s1 [Example 226, (1R,2R)-2-((6-((5-(1H-imidazol-1-yl)-1H-benzo[d]imidazol-1-yl)methyl)benzo[d]thiazol-2-yl)amino)cyclohexanol] | ≤ 0.1 | ≤ 0.05 | ≤ 0.005 | ≤ 0.05 | ≤ 0.05 |
| O[C@@H]1CCCC[C@H]1Nc1nc2ccc(Cc3cnc4cnccn34)cc2s1 [Example 125, (1R,2R)-2-((6-(imidazo[1,2-a]pyrazin-3-ylmethyl)benzo[d]thiazol-2-yl)amino)cyclohexanol] | 0.5 to 2 | 0.05 to 0.5 | 0.005 to 0.02 | 0.05 to 0.2 | 0.4 to 1.5 |

Second part, led by results:

| Kd (KIT) [µM] | Kd (PDGFRβ) [µM] | Kd (CSF1R [1]) [µM] | IC50 (CSF1R [2]) [µM] | Structure (SMILES) | IC50 (M-NFS-60 cells) [µM] |
| --- | --- | --- | --- | --- | --- |
| 0.1 to 0.5 | 0.05 to 0.5 | 0.005 to 0.02 | 0.2 to 0.5 | Fc1cnc2c(c1)ncn2Cc1ccc2nc(N[C@H]3C=CCCC3)sc2c1 [Example 176, (R)—N-(cyclohex-2-en-1-yl)-6-((6-fluoro-3H-imidazo[4,5-b]pyridin-3-yl)methyl)benzo[d]thiazol-2-amine] | 0.4 to 1.5 |
| 0.1 to 0.5 | 0.05 to 0.5 | 0.005 to 0.02 | 0.05 to 0.2 | C#Cc1ccc2ncn(Cc3ccc4nc(N[C@@H]5CCCC[C@H]5O)sc4c3)c2c1 [Example 122, (1R,2R)-2-((6-((6-ethynyl-1H-benzo[d]imidazol-1-yl)methyl)benzo[d]thiazol-2-yl)amino)cyclohexanol] | 0.05 to 0.4 |
| 0.1 to 0.5 | ≤ 0.05 | 0.005 to 0.02 | ≤ 0.05 | Cn1nnnc1-c1cnc2c(c1)ncn2Cc1ccc2nc(N[C@@H]3CCCC[C@H]3O)sc2c1 [Example 134, (1R,2R)-2-((6-((6-(1-methyl-1H-tetrazol-5-yl)-3H-imidazo[4,5-b]pyridin-3-yl)methyl)benzo[d]thiazol-2-yl)amino)cyclohexanol] | 0.05 to 0.4 |
| 0.1 to 0.5 | 0.05 to 0.5 | 0.02 to 0.05 | 0.05 to 0.2 | CC(C)(O)c1cnc2c(c1)ncn2Cc1ccc2nc(N[C@@H]3CCCC[C@H]3O)sc2c1 [Example 109, (1R,2R)-2-((6-((6-(2-hydroxypropan-2-yl)-3H-imidazo[4,5-b]pyridin-3-yl)methyl)benzo[d]thiazol-2-yl)amino)cyclohexanol] | 0.05 to 0.4 |
| ≤ 0.1 | 0.05 to 0.5 | ≤ 0.005 | ≤ 0.05 | O[C@@H]1CCCC[C@H]1Nc1nc2ccc(Cc3cnc4ccc(N5CCOCC5)nn34)cc2s1 [Example 155, (1R,2R)-2-((6-((6-morpholinoimidazo[1,2-b]pyridazin-3-yl)methyl)benzo[d]thiazol-2-yl)amino)cyclohexanol] | 0.05 to 0.4 |
| 0.1 to 0.5 | 0.05 to 0.5 | 0.005 to 0.02 | 0.05 to 0.2 | CC(=O)c1ccc2ncn(Cc3ccc4nc(N[C@@H]5CCCC[C@H]5O)sc4c3)c2c1 [Example 120, 1-(1-((2-(((1R,2R)-2-hydroxycyclohexyl)amino)benzo[d]thiazol-6-yl)methyl)-1H-benzo[d]imidazol-6-yl)ethanone] | 0.05 to 0.4 |

Source: US9938261B2, “Heterocyclic compounds and methods of use thereof” (AMBIT BIOSCIENCES CORPORATION, priority 2011, dated 2018)
